Reference: PMC8456950, “Structure‐Guided Design of G‐Protein‐Coupled Receptor Polypharmacology” (Angewandte Chemie (International Ed. in English), 2021)

Experiments:
[1] = target: T1, Human A1AR (Homo sapiens, UniProt P30542); experiment: A1AR competition binding ([3H]-DPCPX); conditions: for A1AR % displacement at 10 µM: 10 µM compound, n=2
T1 construct: expressed in transfected cells; host or cells: CHO-A1AR cell line (membranes)
T1 sequence (P30542 1-326): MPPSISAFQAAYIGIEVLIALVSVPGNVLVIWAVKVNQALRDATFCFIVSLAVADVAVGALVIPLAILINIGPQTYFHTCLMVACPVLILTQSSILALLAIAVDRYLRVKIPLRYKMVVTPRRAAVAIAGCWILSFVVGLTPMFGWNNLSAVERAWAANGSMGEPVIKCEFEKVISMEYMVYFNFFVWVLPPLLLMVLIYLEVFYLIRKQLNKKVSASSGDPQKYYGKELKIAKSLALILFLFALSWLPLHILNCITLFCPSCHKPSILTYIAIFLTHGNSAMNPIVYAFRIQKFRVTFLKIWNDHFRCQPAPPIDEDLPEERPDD
Method: Human A1AR competition binding experiments were carried out in multiscreen GF/C 96 -well plates (Millipore, Madrid, Spain) pretreated with assay buffer ( 20 mM Hepes, 100 mM NaCl, 10 mM MgCl2, 2 U/ml adeno sine deamina se, pH=7.4). Each well contained 5 µg of membranes from a CHO-A1AR cell line, 1 nM [3H]-DPCPX (137 Ci/mmol, 1 mCi/Ml, Perkin Elmer NET974001MC), and the compound studied. Non-specific binding was determined in the presence of R-PIA 10 µM (Sigma P4532). The reaction mixture (200 µl/well) was incubated at 25°C for 60 min. The samples were then filtered and washed four times with 250 µl wash buffer (20 mM Hepes, 100 mM NaCl, 10 mM MgCl2, pH=7.4) before measuring in a microplate beta scintillati on counter (Microbeta Trilux, PerkinElmer, Madrid, Spain). Two independent experiments were carried out to calculate K i values (n=2). […]

[2] = target: T2, D3R (Homo sapiens, UniProt P35462); experiment: D3R competition binding ([3H]-spiperone); conditions: mean±SEM of two experiments in duplicate; read-out: D3R binding affinity Ki
T2 construct: purchased Perkin Elmer ES-173M400UA
Method: samples were filtered and washed four times with 250 µl wash buffer (50 mM Tris-HCl, 0.9% NaCl, pH=7.4) before measuring in a microplate beta scintillation counter (Microbeta Trilux, PerkinElmer, Madrid, Spain). Three independent exp eriments were carried out to calculate Ki values (n=3).
Human A1AR competition binding experiments were carried out in multiscreen GF/C 96 -well plates (Millipore, Madrid, Spain) pretreated with assay buffer ( 20 mM Hepes, 100 mM NaCl, 10 mM MgCl2, 2 U/ml adeno sine deamina se, pH=7.4). Each well contained 5 µg of membranes from a CHO-A1AR cell line, 1 nM [3H]-DPCPX (137 Ci/mmol, 1 mCi/Ml, Perkin Elmer NET974001MC), and the compound studied. Non-specific binding was determined in the presence of R-PIA 10 µM (Sigma P4532). The reaction mixture (200 µl/well) was incubated at 25°C for 60 min. The samples were then filtered and washed four times with 250 µl wash buffer (20 mM Hepes, 100 mM NaCl, 10 mM MgCl2, pH=7.4) before measuring in a microplate beta scintillati on counter (Microbeta Trilux, PerkinElmer, Madrid, Spain). Two independent experiments were carried out to calculate K i values (n=2).
D3R competition binding experiments were carried out in polypropylene 96 -well plate s. Each well contained 2 µg of membranes from a D3R cell line (Perkin Elmer, ES-173M400UA, protein concentration=1000 µg/ml), 1 nM [3H]-spiperone (68 Ci/mmol, 1 mCi/ml, Perkin Elmer NET1187001MC), and the compound studied. Non-specific binding was determined in the presence of 1 µ M haloperidol (Sigma H1512). The reaction mixture (250 µl/well) was incubated at 25 °C for 60 min, after which 200 µL was transferred to GF/C 96-well plates (Millipore, Madrid, Spain) pretreated with 0. […]
D4R competition binding experiments were carried out in polypropylene 96 -well plate s. […] Non-specific binding was determined in the presence of 25 µM haloperidol (Sigma H1512). […]
H1R competition binding experiments were carried out in polypropylene 96-well plates. […] Non-specific binding was determined in the presence of 10 µM triprolidine (T6764, Sigma Aldrich). […]

T2 sequence (P35462 whole entry): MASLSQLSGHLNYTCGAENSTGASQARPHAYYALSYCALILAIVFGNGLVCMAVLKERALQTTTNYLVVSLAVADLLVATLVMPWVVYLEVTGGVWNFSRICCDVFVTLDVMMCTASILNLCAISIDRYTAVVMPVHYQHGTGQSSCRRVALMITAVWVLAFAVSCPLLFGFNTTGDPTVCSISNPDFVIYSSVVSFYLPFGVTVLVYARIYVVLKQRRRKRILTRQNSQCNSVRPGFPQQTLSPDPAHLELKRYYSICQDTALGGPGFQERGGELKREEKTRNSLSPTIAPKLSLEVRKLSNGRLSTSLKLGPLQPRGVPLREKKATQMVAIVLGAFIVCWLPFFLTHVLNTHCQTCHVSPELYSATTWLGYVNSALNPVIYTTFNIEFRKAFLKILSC

Row | Structure (SMILES) | A1AR % displacement at 10 µM [1] | Ki [2] | Ki ([1]; mean±SEM of two experiments in duplicate, read-out: A1AR binding affinity Ki)
1 | CCCN(CCCCC(=O)Nc1nc2c(OC)cccc2s1)C1Cc2ccccc2C1 [Compound 26] | 22 ± 1% | 21 ± 2 nM | –
2 | CCCN(CCCCC(=O)Nc1nc2c(OC)ccc(OC)c2s1)C1Cc2ccccc2C1 [Compound 30] | 35 ± 1% | 56 ± 7 nM | > 10000 nM
3 | CCCN(CCCCC(=O)Nc1nc2c(Br)cccc2s1)C1Cc2ccccc2C1 [Compound 27] | 37 ± 4% | – | –
4 | CCN(CCCCC(=O)Nc1nc2c(Br)cccc2s1)C1Cc2ccccc2C1 [Compound 22] | – | 21 ± 6 nM | –
